How the values were obtained:
[1] = biological target: FPTase (farnesyl-protein transferase) with H-Ras as substrate for farnesylation (UniProt P29702+P49355); assay: in vitro FTase Inhibition Assay (H-Ras substrate); format: biochemical
Method: Enzyme assay: FPTase inhibition in vitro assay was performed according to James, G. L., Brown, M. S., and Goldstein, J. L., Methods in Enzymology, 1995, 255, 38-46; and Garcia, M. A., et al., J. Biol. Chem., 1993, 268,18415-18420.
Materials—Purified FPTase (Moomaw, J. F. and Casey, P. J., J. Biol. Chem., 1992, 267, 17438-17443), purified His6-Ras, inhibitor compounds at 10 mg/ml or 10 mM in 100% DMSO, ^3H-FPP (50,000 dpm/pmol) Amersham, TCA/SDS (6%/2%), TCA (6%), Glass fiber filters ([…]), vacuum manifold or 96 well filtration plates.
Methods—1. Dilute FPTase inhibitors from stock solutions to 2.5× in 2.5% DMSO, 10 mM DTT, 0.5% octyl-B-glucoside. 2. Solution #1 is added to FPTase reaction in a volume of […]. 3. Standard reaction mix, […], contains 50 mM Tris (7.5),[…], 3 mM MgCl2, 20 mM KCl, 5 mM DTT, 0.2% octyl-B-glucoside, 1% DMSO, […], 10 ng FPTase, and various concentrations of FPTase inhibitors. 4. Incubate for 30-90 min at 25° C. 5. Stop reactions with TCA/SDS (6%/2%), hold at 4° C. for 45-60 min. 6. Filter by manifold or 96 well plate, wash filter 3-5× with TCA (6%). 7. Add scintillant to filters, measure ^3H-FPP incorporation into Ras protein.
Analysis of Results—Percent inhibition by test compounds is determined by the following:
(cpm from precipitated Ras with test compounds)−(background cpm)×100=% inhibition.
(cpm from precipitated Ras without test compounds)−(background cpm)

## Cc1ccc(SC2(Cc3cccc(Oc4cccc(Cl)c4)c3)SC(=O)NC2=O)cc1 (stereo not drawn) [Example 25, 5-[3-(3-Chlorophenoxy)benzyl]-5-(4-methylbenzenesulfanyl)thiazolidine-2,4-dione]
[1]
  IC50: 3500 nM

## COc1ccc(Cc2cccc(CC3(Sc4ccc(C)cc4)SC(=O)NC3=O)c2)cc1 (stereo not drawn) [Example 17, 5-[3-(4-Methoxybenzyl)benzyl]-5-(4-methylbenzenesulfanyl)thiazolidine-2,4-dione]
[1]
  IC50: 2900 nM

## COc1ccc(S(=O)(=O)C2(Cc3ccc(-c4ccc(Cl)cc4)cc3)SC(=O)NC2=O)cc1 (stereo not drawn) [Example 21, 5-(4′-Chlorobiphen-4-ylmethyl)-5-(4-methoxybenzenesulfonyl)thiazolidine-2,4-dione]
[1]
  IC50: 1000 nM
other
  melting point: 197 to 200 °C

## Cc1ccc(S(=O)(=O)C2(Cc3ccc(-c4ccccc4C#N)cc3)SC(=O)NC2=O)cc1 (stereo not drawn) [Example 14, 5-[2′-cyanobiphen-4-ylmethyl]-5-(4-methylbenzenesulfonyl)thiazolidine-2,4-dione]
[1]
  IC50: 77 nM

## Cc1ccc(S(=O)(=O)C2(Cc3ccc(-c4ccccc4-c4nnn[nH]4)cc3)SC(=O)NC2=O)cc1 (stereo not drawn) [Example 15, 5-[2′-(1H-Tetrazol-5-yl)biphen-4-ylmethyl]-5-(4-methylbenzenesulfonyl)thiazolidine-2,4-dione]
[1]
  Activity* (% inhib. at 10 μM): (4%)

## Cc1ccc(SC2(Cc3cccc(C4(c5cccs5)OCCO4)c3)SC(=O)NC2=O)cc1 (stereo not drawn) [Example 18, 5-[3-(2-Thiophen-2-yl[1,3]dioxolan-2-yl)benzyl]-5-(4-methylbenzenesulfanyl)thiazolidine-2,4-dione]
[1]
  IC50: 4500 nM

## Cc1ccc(S(=O)(=O)C2(Cc3cccc(C4(c5cccs5)OCCO4)c3)SC(=O)NC2=O)cc1 (stereo not drawn) [Example 26, 5-[3-(2-thiophen-2-yl[1,3]dioxolan-2-yl)benzyl]-5-(4-methylbenzenesulfonyl)thiazolidine-2,4-dione]
[1]
  IC50: 6000 nM

## COc1ccc(S(=O)(=O)C2(Cc3ccc(-c4cc(C(F)(F)F)cc(C(F)(F)F)c4)cc3)SC(=O)NC2=O)cc1 (stereo not drawn) [Example 23, 5-(3′,5′-Bis(trifluoromethyl)biphen-4-ylmethyl)-5-(4-methoxybenzenesulfonyl)thiazolidine-2,4-dione]
[1]
  IC50: > 10000 nM
other
  melting point: 122 to 125 °C

## Cc1ccc(S(=O)(=O)C2(Cc3ccc(Br)cc3F)SC(=O)NC2=O)cc1 (stereo not drawn) [Example 2, 5-(4-Bromo-2-fluorobenzyl)-5-(4-methylbenzenesulfonyl)thiazolidine-2,4-dione]
[1]
  IC50: 6500 nM
other
  melting point: 236 to 237 °C

## COc1ccc(S(=O)(=O)C2(Cc3ccc(-c4ccccc4)cc3)SC(=O)NC2=O)cc1 (stereo not drawn) [Example 20, 5-Biphen-4-ylmethyl-5-(4-methoxybenzenesulfonyl)thiazolidine-2,4-dione]
[1]
  IC50: 1700 nM
other
  melting point: 119 to 122 °C

## COc1ccc(S(=O)(=O)C2(Cc3ccc(-c4ccc(Cl)cc4Cl)cc3)SC(=O)NC2=O)cc1 (stereo not drawn) [Example 24, 5-(2′,4′-Dichlorobiphen-4-ylmethyl)-5-(4-methoxybenzenesulfonyl)thiazolidine-2,4-dione]
[1]
  IC50: 740 nM
other
  melting point: 104 to 107 °C

## Cc1ccc(SC2(Cc3cccc(C(=O)c4cccs4)c3)SC(=O)NC2=O)cc1 (stereo not drawn) [Example 19, 5-[3-(Thiophene-2-carbonyl)benzyl]-5-(4-methylbenzenesulfanyl)thiazolidine-2,4-dione]
[1]
  IC50: 2800 nM

## COc1ccc(S(=O)(=O)C2(Cc3ccccc3)SC(=O)NC2=O)cc1 (stereo not drawn) [Example 6, 5-Benzyl-5-(4-methoxybenzenesulfonyl)thiazolidine-2,4-dione]
[1]
  Activity* (% inhib. at 10 μM): (21%)
other
  melting point: 146 to 152 °C

## COc1ccc(C(=O)c2cccc(CC3(Sc4ccc(C)cc4)SC(=O)NC3=O)c2)cc1 (stereo not drawn) [Example 11, 5-(3-(4-methoxybenzoyl)benzyl)-5-(4-methylbenzenesulfanyl)thiazolidine-2,4-dione]
[1]
  IC50: 2500 nM

## COc1ccc(S(=O)(=O)C2(Cc3ccccc3)SC(=O)N(CC(=O)NO)C2=O)cc1 (stereo not drawn) [Example 7, 2-[5-Benzyl-5-(4-methoxybenzenesulfonyl)-2,4-dioxothiazolidin-3-yl]-N-hydroxyacetamide]
[1]
  IC50: 2500 nM

## COc1ccc(C(=O)c2cccc(CC3(S(=O)(=O)c4ccc(C)cc4)SC(=O)NC3=O)c2)cc1 (stereo not drawn) [Example 10, 5-(3-(4-methoxybenzoyl)benzyl)-5-(4-methylbenzenesulfonyl)thiazolidine-2,4-dione]
[1]
  IC50: 4250 nM

## Cc1ccc(S(=O)(=O)C2(Cc3ccc(Cl)c(Cl)c3)SC(=O)NC2=O)cc1 (stereo not drawn) [Example 3, 5-(3,4-Dichlorobenzyl)-5-(4-methylbenzenesulfonyl)thiazolidine-2,4-dione]
[1]
  Activity* (% inhib. at 10 μM): (1%)
other
  melting point: 183 to 184 °C

## COc1ccc(C(O)c2cccc(CC3(Sc4ccc(C)cc4)SC(=O)NC3=O)c2)cc1 (stereo not drawn) [Example 12, 5-(3-[Hydroxy(4-methoxyphenyl)methyl]-benzyl)-5-(4-methylbenzenesulfanyl)thiazolidine-2,4-dione]
[1]
  IC50: 3700 nM

## COc1ccc(S(=O)(=O)C2(Cc3ccc(-c4ccccc4C#N)cc3)SC(=O)NC2=O)cc1 (stereo not drawn) [Example 16, 5-[2′-cyanobiphen-4-ylmethyl]-5-(4-methoxybenzenesulfonyl)thiazolidine-2,4-dione]
[1]
  IC50: 350 nM

## Cc1ccc(S(=O)(=O)C2(Cc3ccc(Br)cc3)SC(=O)NC2=O)cc1 (stereo not drawn) [Example 13]
[1]
  Activity* (% inhib. at 10 μM): (28%)

## COc1ccc(C2(c3cccc(CC4(S(=O)(=O)c5ccc(C)cc5)SC(=O)NC4=O)c3)OCCO2)cc1 (stereo not drawn) [Example 9, 5-(3-[2-(4-Methoxyphenyl)[1,3]dioxolan-2-yl]benzyl)-5-(4-methylbenzenesulfonyl)thiazolidine-2,4-dione]
[1]
  IC50: 1200 nM

## O=C1NC(=O)C(Cc2ccc(Br)cc2F)(S(=O)(=O)c2ccc3ccccc3c2)S1 (stereo not drawn) [Example 4, 5-(4-Bromo-2-fluorobenzyl)-5-(naphthalene-2-sulfonyl)thiazolidine-2,4-dione]
[1]
  Activity* (% inhib. at 10 μM): (1%)
other
  melting point: 195 to 197 °C

## COc1ccc(C2(c3cccc(CC4(Sc5ccc(C)cc5)SC(=O)NC4=O)c3)OCCO2)cc1 (stereo not drawn) [Example 8, 5-(3-[2-(4-Methoxyphenyl)[1,3]dioxolan-2-yl]benzyl)-5-(4-methylbenzenesulfanyl)thiazolidine-2,4-dione]
[1]
  IC50: 1300 nM

## Cc1oc(-c2ccccc2)nc1CCOc1ccc(CC2(S(=O)(=O)c3ccc4ccccc4c3)SC(=O)NC2=O)cc1 (stereo not drawn) [Example 5, 5-(4-[2-(5-Methyl-2-phenyloxazol-4-yl)ethoxy]benzyl)-5-(naphthalene-2-sulfonyl)thiazolidine-2,4-dione]
[1]
  Activity* (% inhib. at 10 μM): (−2%)
other
  melting point: 133 to 136 °C

## Cc1ccc(S(=O)(=O)C2(Cc3ccc(OCCc4nc(-c5ccccc5)oc4C)cc3)SC(=O)NC2=O)cc1 (stereo not drawn) [Example 1, 5-(4-[2-(5-Methyl-2-phenyloxazol-4-yl)ethoxy]benzyl)-5-(4-methylbenzenesulfonyl)thiazolidine-2,4-dione]
[1]
  IC50: 2250 nM
other
  melting point: 202 to 204 °C

## COc1ccc(S(=O)(=O)C2(Cc3ccc(-c4cccc(C(F)(F)F)c4)cc3)SC(=O)NC2=O)cc1 (stereo not drawn) [Example 22, 5-(4-Methoxybenzenesulfonyl)-5-(3′-(trifluoromethyl)biphen-4-ylmethyl)thiazolidine-2,4-dione]
[1]
  IC50: 2500 nM

Source: patent US6716862B2, “5-(Substituted)-5-(substitutedsulfonyl or sulfanyl) thiazolidine-2,4-diones useful for inhibition of farnesyl-protein transferase” (Wyeth Holdings Corporation, priority 2001, dated 2004)
